What was measured:
Experiment in all cases: Antibiotic susceptibility profile
Type in all cases: cell-based, Acinetobacter baumannii
Design in all cases: key: Resistance; Intermediate; Susceptible
[1] = test system: A. baumannii clinical isolate NY A
Text: (§1) We obtained over thirty clinical isolates of A. baumannii from nosocomial infections in New York City and Los Angeles. […] Only antibiotics with breakpoints for A. baumannii were used. […] Isolates LA 01 to 20 were acquired from Los Angels County while NY-A to NY-H were obtained from New York City.
(§2) Antibiotic susceptibility profiles of clinical isolates of A. baumannii and reference strains. R, I, and S denote Resistance, Intermediate and Susceptible, respectively. Genetic Profiling of Clinical Isolates of A. baumannii

[2] = test system: A. baumannii reference strain SDF
Text: as §1, §2

[3] = test system: A. baumannii clinical isolate LAC 17
Text: as §1, §2

[4] = test system: A. baumannii clinical isolate LAC 02
Text: as §1, §2

[5] = test system: A. baumannii clinical isolate NY G
Text: as §1, §2

[6] = test system: A. baumannii clinical isolate NY F
Text: as §1, §2

[7] = test system: A. baumannii clinical isolate LAC 18
Text: as §1, §2

[8] = test system: A. baumannii clinical isolate LAC 15
Text: as §1, §2

[9] = test system: A. baumannii reference strain 17978; conditions: strain 17978 (ATCC)
Text: as §1, §2

[10] = test system: A. baumannii clinical isolate LAC 06
Text: as §1, §2

[11] = test system: A. baumannii clinical isolate LAC 10
Text: as §1, §2

[12] = test system: A. baumannii clinical isolate NY B
Text: as §1, §2

[13] = test system: A. baumannii clinical isolate LAC 20
Text: as §1, §2

[14] = test system: A. baumannii clinical isolate LAC 01
Text: as §1, §2

[15] = test system: A. baumannii clinical isolate LAC 08
Text: as §1, §2

[16] = test system: A. baumannii clinical isolate NY D
Text: as §1, §2

[17] = test system: A. baumannii clinical isolate LAC 07
Text: as §1, §2

[18] = test system: A. baumannii clinical isolate LAC 03
Text: as §1, §2

[19] = test system: A. baumannii clinical isolate LAC 11
Text: as §1, §2

[20] = test system: A. baumannii clinical isolate LAC 19
Text: as §1, §2

[21] = test system: A. baumannii clinical isolate LAC 09
Text: as §1, §2

[22] = test system: A. baumannii clinical isolate LAC 04
Text: as §1, §2

[23] = test system: A. baumannii clinical isolate NY C
Text: as §1, §2

[24] = test system: A. baumannii clinical isolate NY H
Text: as §1, §2

[25] = test system: A. baumannii clinical isolate NY E
Text: as §1, §2

[26] = test system: A. baumannii clinical isolate LAC 16
Text: as §1, §2

[27] = test system: A. baumannii clinical isolate LAC 13
Text: as §1, §2

[28] = test system: A. baumannii clinical isolate LAC 14
Text: as §1, §2

[29] = test system: A. baumannii reference strain AYE
Text: as §1, §2

[30] = test system: A. baumannii clinical isolate LAC 12
Text: as §1, §2

[31] = test system: A. baumannii reference strain 19606; conditions: strain 19606 (ATCC)
Text: as §1, §2

[32] = test system: A. baumannii reference strain 15839; conditions: strain 15839 (ATCC)
Text: as §1, §2

[33] = test system: A. baumannii clinical isolate LAC 05
Text: as §1, §2

| SMILES | Antibiotic susceptibility [1] | Antibiotic susceptibility [2] | Antibiotic susceptibility [3] | Antibiotic susceptibility [4] | Antibiotic susceptibility [5] | Antibiotic susceptibility [6] | Antibiotic susceptibility [7] | Antibiotic susceptibility [8] | Antibiotic susceptibility [9] | Antibiotic susceptibility [10] | Antibiotic susceptibility [11] | Antibiotic susceptibility [12] | Antibiotic susceptibility [13] | Antibiotic susceptibility [14] | Antibiotic susceptibility [15] | Antibiotic susceptibility [16] | Antibiotic susceptibility [17] | Antibiotic susceptibility [18] | Antibiotic susceptibility [19] | Antibiotic susceptibility [20] | further results |
| --- | --- | --- | --- | --- | --- | --- | --- | --- | --- | --- | --- | --- | --- | --- | --- | --- | --- | --- | --- | --- | --- |
| CO/N=C(\C(=O)N[C@@H]1C(=O)N2C(C(=O)O)=C(CSc3nc(=O)c(=O)[nH]n3C)CS[C@H]12)c1csc(N)n1 [CRO, Ceftriaxone] | R | I | R | R | R | R | R | R | S | R | R | R | R | R | I | R | R | R | R | R | Antibiotic susceptibility [21]: R; Antibiotic susceptibility [22]: R; Antibiotic susceptibility [23]: R; Antibiotic susceptibility [24]: R; Antibiotic susceptibility [25]: I; Antibiotic susceptibility [26]: R; Antibiotic susceptibility [27]: R; Antibiotic susceptibility [28]: R; Antibiotic susceptibility [29]: R; Antibiotic susceptibility [30]: R; Antibiotic susceptibility [31]: I; Antibiotic susceptibility [32]: R; Antibiotic susceptibility [33]: I |
| CO/N=C(\C(=O)N[C@@H]1C(=O)N2C(C(=O)O)=C(COC(C)=O)CS[C@H]12)c1csc(N)n1 [CTX, Cefotaxime] | R | S | R | R | R | R | R | R | S | R | R | R | R | R | I | R | R | R | R | R | Antibiotic susceptibility [21]: R; Antibiotic susceptibility [22]: R; Antibiotic susceptibility [23]: R; Antibiotic susceptibility [24]: R; Antibiotic susceptibility [25]: R; Antibiotic susceptibility [26]: R; Antibiotic susceptibility [27]: R; Antibiotic susceptibility [28]: R; Antibiotic susceptibility [29]: R; Antibiotic susceptibility [30]: R; Antibiotic susceptibility [31]: I; Antibiotic susceptibility [32]: R; Antibiotic susceptibility [33]: I |
| C[C@H]1c2cccc(O)c2C(=O)C2=C(O)[C@]3(O)C(=O)C(C(N)=O)=C(O)[C@@H](N(C)C)[C@@H]3[C@@H](O)[C@@H]21 [DOX, Doxycycline] | S | S | S | S | R | S | S | S | S | S | S | R | S | S | S | S | S | S | R | S | Antibiotic susceptibility [21]: S; Antibiotic susceptibility [22]: S; Antibiotic susceptibility [23]: S; Antibiotic susceptibility [24]: S; Antibiotic susceptibility [25]: R; Antibiotic susceptibility [26]: S; Antibiotic susceptibility [27]: R; Antibiotic susceptibility [28]: R; Antibiotic susceptibility [29]: S; Antibiotic susceptibility [30]: R; Antibiotic susceptibility [31]: S; Antibiotic susceptibility [32]: R; Antibiotic susceptibility [33]: S |
| CO/N=C(\C(=O)N[C@@H]1C(=O)N2C(C(=O)[O-])=C(C[N+]3(C)CCCC3)CS[C@H]12)c1csc(N)n1 [FEP, Cefepime] | I | I | R | R | R | R | R | R | S | S | R | R | R | R | I | R | R | R | R | R | Antibiotic susceptibility [21]: R; Antibiotic susceptibility [22]: I; Antibiotic susceptibility [23]: R; Antibiotic susceptibility [24]: R; Antibiotic susceptibility [25]: R; Antibiotic susceptibility [26]: R; Antibiotic susceptibility [27]: R; Antibiotic susceptibility [28]: R; Antibiotic susceptibility [29]: R; Antibiotic susceptibility [30]: R; Antibiotic susceptibility [31]: I; Antibiotic susceptibility [32]: I; Antibiotic susceptibility [33]: I |
